Assay results: patent US20060105940A1, “Compound useful in the treatment or prevention of cognitive disorders associated with diabetes and associated methods” (Axonyx, Inc., priority 2004, published 2006)
Where a name gives a salt, the structure may show the parent alone. Read-outs that look alike come from different tables or passages of the source.

Columns and labels:
[1] = Solubility in water / aqueous solution; type: physicochemical; settings: for Solubility (in words): aqueous solution, free base versus tartrate acid addition salt
human BChE [2] = target: T1, human BChE (Homo sapiens, UniProt P06276); settings: human BChE freshly prepared from human plasma; see Greig et al. page 78; cited from earlier work
T1 construct: use human BChE and AChE freshly prepared from human plasma and erythrocytes, respectively; from tissue; host or cells: human plasma

human AChE [3] = target: T2, human AChE (Homo sapiens, UniProt P22303); settings: human AChE freshly prepared from human erythrocytes; see Greig et al. page 78; cited from earlier work
T2 construct: use human BChE and AChE freshly prepared from human plasma and erythrocytes, respectively; from tissue; host or cells: human erythrocytes

[4] = system: aged (24-26-month-old) Fischer-344 rats; settings: Stone 14-unit T-maze, Greig et al. 2003; cited from earlier work
human BChE [5] = target: T1, human BChE; assay: Inhibition of human plasma BChE activity (IC50); type: biochemical; settings: human BChE freshly prepared from human plasma
Source text: (§1) Potential cholinesterase agents may be evaluated for potency in vitro by assaying its inhibitory effect on electric eel and human red blood cell ACHE and human plasma BCHE activity in cell-free extracts (See U.S. Pat. Nos. 6,495,700; 5,409,948; 5,171,750; 5,378,723; and 5,998,460). Studies also commonly utilize aged rat models to evaluate effectiveness of therapeutic drug leads in ameliorating cognitive disorders. […] (See, Greig, N. H. et al. “Butyrylcholinesterase: Its Function and Inhibition.” (ed., Giacobini, E.) Martin Dunitz, Ltd., London, 69-90, 2003, Chapter 6: Butyrylcholinesterase: its selective inhibition and relevance to Alzheimer's disease therapy at pages 80-81).
(§2) (See, Greig, N. H. et al. at page 78). These biological activity assays use human BChE and AChE freshly prepared from human plasma and erythrocytes, respectively.
(§3) These biological activity assays use human BChE and AChE freshly prepared from human plasma and erythrocytes, respectively.

human AChE [6] = target: T2, human AChE; assay: Inhibition of human erythrocyte AChE activity (IC50); type: biochemical; settings: human AChE freshly prepared from human erythrocytes
Source text: as §1, §2, §3

[7] = system: aged (21-22 month old) Fisher-344 rats; assay: Stone maze cognitive ability test after i.p. MHI tartrate (Example VII); type: in vivo, rat; settings: 0.5 to 1.0 mg per kg intraperitoneal, daily, aged Fisher-344 rats
Description: (See U.S. Pat. No. 6,683,105). MHI tartrate is administered in dosages in the range of 0.5 to 1.0 mg per kg of subject body weight. This dosage is administered daily, for example, 1-3 times per day. Effectiveness of MHI tartrate is measured by testing cognitive ability before and after administration. For instance, rats may be tested using a “Stone maze” in which a maze constructed of translucent plastic containing a grid floor wired for scrambled foot shocks surrounded by opaque gray walls to minimize effects of non-MHI tartrate related variables. Rats are given 10 seconds in which to navigate the maze. […] Similar cognitive tests, for instance timed, objective memorization tests, may be used on other subjects, such as humans.

T1 sequence (P06276 29-602): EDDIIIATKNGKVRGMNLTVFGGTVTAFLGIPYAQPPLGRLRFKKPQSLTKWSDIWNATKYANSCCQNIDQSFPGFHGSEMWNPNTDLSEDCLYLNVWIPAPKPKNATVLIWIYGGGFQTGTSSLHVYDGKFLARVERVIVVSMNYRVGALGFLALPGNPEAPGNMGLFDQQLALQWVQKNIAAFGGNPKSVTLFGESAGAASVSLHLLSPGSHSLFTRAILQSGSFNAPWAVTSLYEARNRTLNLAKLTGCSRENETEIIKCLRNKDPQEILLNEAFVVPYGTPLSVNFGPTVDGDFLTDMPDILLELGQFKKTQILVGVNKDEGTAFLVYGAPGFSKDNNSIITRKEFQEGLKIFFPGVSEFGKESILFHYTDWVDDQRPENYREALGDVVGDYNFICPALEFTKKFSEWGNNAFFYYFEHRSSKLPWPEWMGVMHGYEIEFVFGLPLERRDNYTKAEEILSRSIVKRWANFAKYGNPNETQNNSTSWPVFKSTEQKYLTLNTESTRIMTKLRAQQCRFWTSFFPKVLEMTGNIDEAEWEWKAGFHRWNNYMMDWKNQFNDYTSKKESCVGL
T2 sequence (P22303 32-617 isoform P22303-2 limits assumed): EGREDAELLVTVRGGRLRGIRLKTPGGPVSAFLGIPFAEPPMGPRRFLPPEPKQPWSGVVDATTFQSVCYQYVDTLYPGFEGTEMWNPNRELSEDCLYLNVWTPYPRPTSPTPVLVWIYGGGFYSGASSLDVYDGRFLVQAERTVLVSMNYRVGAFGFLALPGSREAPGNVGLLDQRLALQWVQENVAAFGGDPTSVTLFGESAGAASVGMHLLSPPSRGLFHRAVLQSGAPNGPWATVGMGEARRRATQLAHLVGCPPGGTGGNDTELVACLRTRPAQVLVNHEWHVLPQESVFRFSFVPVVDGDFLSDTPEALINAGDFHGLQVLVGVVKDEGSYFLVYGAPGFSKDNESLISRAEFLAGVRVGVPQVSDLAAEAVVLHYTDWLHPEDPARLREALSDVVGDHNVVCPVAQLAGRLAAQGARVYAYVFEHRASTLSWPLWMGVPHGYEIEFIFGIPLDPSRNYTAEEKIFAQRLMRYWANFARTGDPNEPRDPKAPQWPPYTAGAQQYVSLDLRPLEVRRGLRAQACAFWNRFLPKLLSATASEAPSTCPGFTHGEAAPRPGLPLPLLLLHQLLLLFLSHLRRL

| SMILES | Solubility ([1]; listed as MHI) | Solubility (g per 100 ml Saturated H2O solution at room temperature) [1] | IC50 (human BChE [2]) | IC50 (human AChE [3]) | Augmenting memory processing [4] | IC50 (human BChE [5]) | IC50 (human AChE [6]) | Solubility (in words) [1] | Cognitive ability (maze navigation) [7] |
| --- | --- | --- | --- | --- | --- | --- | --- | --- | --- |
| CC(C)c1ccc(NC(=O)Oc2ccc3c(c2)C2(C)CCNC2N3)cc1 (single isomer, unassigned; (-)) [MHI (Base)] | about 0.0005 g/ml | 0.05 g g per 100 ml | 1 ± 0.1 nM | 110 ± 15 nM | potent in augmenting memory processing |  |  |  |  |
| CC(C)c1ccc(NC(=O)Oc2ccc3c(c2)C2(C)CCNC2N3)cc1 [MHI tartrate, tartrate acid addition salt of the compound (−)-(3aS)-3a-methyl-1,2,3,3a,8,8a-hexahydropyrrolo-[2,3-b]indol-5-yl N-4′-isopropylphenylcarbamate] |  | 1 g g per 100 ml |  |  |  | 1 ± 0.1 nM | 110 ± 15 nM | highly soluble | increase cognitive ability |
| CC(C)c1ccc(NC(=O)Oc2ccc3c(c2)[C@]2(C)CCN(CCc4ccccc4)[C@@H]2N3C)cc1 [phenethylcymserine, reference compound] |  |  |  |  |  |  |  | insoluble |  |
